Measurements taken from ChEMBL document CHEMBL1131913 (Bioorg Med Chem Lett, 1999).

Assays:
[1] = target: T1, Prostaglandin G/H synthase 1 (Ovis aries, UniProt P05979); experiment: In vitro inhibitory activity against Prostaglandin G/H synthase 1 in sheep
T1 sequence (P05979 whole entry): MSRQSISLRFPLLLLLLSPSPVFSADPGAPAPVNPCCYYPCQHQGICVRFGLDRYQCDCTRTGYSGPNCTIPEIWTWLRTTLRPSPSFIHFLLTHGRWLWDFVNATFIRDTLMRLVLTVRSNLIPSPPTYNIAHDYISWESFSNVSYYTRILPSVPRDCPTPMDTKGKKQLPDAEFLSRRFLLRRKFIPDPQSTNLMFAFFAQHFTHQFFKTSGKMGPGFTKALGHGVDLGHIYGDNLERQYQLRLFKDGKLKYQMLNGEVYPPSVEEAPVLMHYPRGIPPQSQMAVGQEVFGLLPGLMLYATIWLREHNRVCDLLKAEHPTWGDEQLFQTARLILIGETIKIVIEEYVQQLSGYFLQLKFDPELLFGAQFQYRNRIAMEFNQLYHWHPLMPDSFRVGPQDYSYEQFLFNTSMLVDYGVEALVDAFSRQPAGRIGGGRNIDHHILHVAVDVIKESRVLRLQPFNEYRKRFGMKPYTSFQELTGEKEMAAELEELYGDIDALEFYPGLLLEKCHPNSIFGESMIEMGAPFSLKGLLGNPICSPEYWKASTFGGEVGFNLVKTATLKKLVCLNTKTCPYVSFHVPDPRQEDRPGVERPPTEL

Ovis aries = species on record: Ovis aries; experiment: Selectivity ratio of COX-1 to that of COX-2
[2] = target: T2, Prostaglandin G/H synthase 2 (Homo sapiens, UniProt P35354); experiment: In vitro inhibitory activity against Prostaglandin G/H synthase 2 (COX-2) in human
T2 sequence (P35354 whole entry): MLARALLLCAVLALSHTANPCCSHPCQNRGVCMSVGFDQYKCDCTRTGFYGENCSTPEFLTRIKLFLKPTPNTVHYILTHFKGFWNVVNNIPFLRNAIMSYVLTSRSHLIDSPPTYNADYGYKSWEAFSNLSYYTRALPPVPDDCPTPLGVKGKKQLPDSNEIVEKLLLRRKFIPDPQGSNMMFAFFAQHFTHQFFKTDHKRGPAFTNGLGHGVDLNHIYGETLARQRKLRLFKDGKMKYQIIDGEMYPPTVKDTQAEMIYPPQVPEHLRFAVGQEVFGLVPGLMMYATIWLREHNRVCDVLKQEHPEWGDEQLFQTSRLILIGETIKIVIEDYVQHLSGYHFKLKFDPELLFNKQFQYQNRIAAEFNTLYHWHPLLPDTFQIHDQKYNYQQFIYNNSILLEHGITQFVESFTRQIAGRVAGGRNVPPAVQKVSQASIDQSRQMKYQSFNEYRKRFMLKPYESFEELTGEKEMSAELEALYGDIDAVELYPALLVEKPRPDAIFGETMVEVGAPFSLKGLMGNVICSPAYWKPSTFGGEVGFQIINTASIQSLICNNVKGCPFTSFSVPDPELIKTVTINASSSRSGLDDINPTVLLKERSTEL

Compound | IC50 [1] [nM] | Selectivity (Ovis aries) | IC50 [2] [nM]
COc1cc(OC)cc(-c2ccc(C(C)C(=O)O)cc2F)c1 (stereo not drawn) | 63 | 0.9 | 70
Cc1cc(C)cc(-c2ccc(C(C)C(=O)O)cc2F)c1 (stereo not drawn) | 15000 | 0.79 | 19000
C/C=C/c1cncc(-c2ccc(C(C)C(=O)O)cc2)c1 (stereo not drawn) | 15500 | 23 | 670
CC(C(=O)O)c1ccc(-c2ccc3[nH]ccc3c2)cc1 (stereo not drawn) | 100 | 0.53 | 190
CCSc1cccc(-c2ccc(C(C)C(=O)O)cc2)c1 (stereo not drawn) | 3100 | 9.4 | 330
CCOc1cc(OCC)cc(-c2ccc(C(C)C(=O)O)cc2F)c1 (stereo not drawn) | 7700 | 77 | 100
CC(C(=O)O)c1ccc(-c2ccccc2)cc1 (stereo not drawn) |  |  | 21
Cc1cc2cc(-c3ccc(C(C)C(=O)O)cc3)ccc2[nH]1 (stereo not drawn) | 10500 | 45 | 230
CC(C)c1cccc(-c2ccc(C(C)C(=O)O)cc2F)c1 (stereo not drawn) | 15000 | < 0.15 | > 100000
C=Cc1cccc(-c2ccc(C(C)C(=O)O)cc2)c1 (stereo not drawn) | 1300 | 1.8 | 730
C=Cc1cncc(-c2ccc(C(C)C(=O)O)cc2)c1 (stereo not drawn) | 190 | 1 | 190
CCOc1cccc(-c2ccc(C(C)C(=O)O)cc2F)c1 (stereo not drawn) | 14 | 1 | 14
C=CCc1cccc(-c2ccc(C(C)C(=O)O)cc2)c1 (stereo not drawn) | 1400 | 9.3 | 150
CCOc1cc(OCC)cc(-c2ccc(C(C)C(=O)O)cc2)c1 (stereo not drawn) | 25000 | 78 | 320
CCc1cccc(-c2ccc(C(C)C(=O)O)cc2)c1 (stereo not drawn) | 5800 | 2.4 | 2400
